Reference: ChEMBL document CHEMBL1201862, “PubChem BioAssay data set” (2004)
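Where inhibition never reached the appropriate level, the endpoint shown equals the highest concentration tested. Otherwise, values were interpolated linearly from a five-concentration, 48-hour dose response in 96-well plates. GI50: concentration for 50% inhibition of growth.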 The source made the active and inactive calls. No stated cut-off is given here; in the data, active = GI50 up to about 1.1 µM and inactive = higher.

Key:
Test in all cases: inhibition of tumour cell growth, NCI panel, 48 h
SK-OV-3 = test system: SK-OV-3
NCI-H522 = test system: NCI-H522
KM12 = test system: KM12
Malme-3M = test system: Malme-3M
IGROV-1 = test system: IGROV-1
COLO 205 = test system: COLO 205
MOLT-4 = test system: MOLT-4
MCF7 = test system: MCF7
TK-10 = test system: TK-10
NCI/ADR-RES = test system: NCI/ADR-RES
HCT-15 = test system: HCT-15
NCI-H226 = test system: NCI-H226
HCT-116 = test system: HCT-116
UO-31 = test system: UO-31
ACHN = test system: ACHN
SK-MEL-28 = test system: SK-MEL-28
HOP-92 = test system: HOP-92
EKVX = test system: EKVX
U-251 = test system: U-251
SF-295 = test system: SF-295

## CC1(C)C(N2CCOCC2)CS1(=O)=O (stereo not drawn)
SK-OV-3
  GI50: > 10 µM (inactive)
NCI-H522
  GI50: > 10 µM (inactive)
KM12
  GI50: > 10 µM (inactive)
Malme-3M
  GI50: > 10 µM (inactive)
IGROV-1
  GI50: > 10 µM (inactive)
COLO 205
  GI50: > 10 µM (inactive)
MOLT-4
  GI50: > 10 µM (inactive)
MCF7
  GI50: > 10 µM (inactive)
TK-10
  GI50: > 10 µM (inactive)
NCI/ADR-RES
  GI50: > 10 µM (inactive)
HCT-15
  GI50: > 10 µM
NCI-H226
  GI50: > 10 µM (inactive)
HCT-116
  GI50: > 10 µM (inactive)
UO-31
  GI50: > 10 µM (inactive)
ACHN
  GI50: > 10 µM (inactive)
SK-MEL-28
  GI50: > 10 µM (inactive)
HOP-92
  GI50: > 10 µM (inactive)
EKVX
  GI50: > 10 µM (inactive)
U-251
  GI50: > 10 µM (inactive)
SF-295
  GI50: > 10 µM (inactive)

## COc1cccc2c1C(=O)c1c(O)c3c(c(O)c1C2=O)CC(O)(C(=O)CO)CC3OC1CC(N)C(I)C(C)O1 (stereo not drawn)
SK-OV-3
  GI50: 3.98 µM (inactive)
NCI-H522
  GI50: 2.9 µM (inactive)
KM12
  GI50: > 30.3 µM (inactive)
Malme-3M
  GI50: 6.05 µM (inactive)
IGROV-1
  GI50: 1.88 µM (inactive)
COLO 205
  GI50: 13.3 µM (inactive)
MOLT-4
  GI50: 0.335 µM (active)
MCF7
  GI50: 1.17 µM (inactive)
NCI/ADR-RES
  GI50: 12.4 µM (inactive)
HCT-15
  GI50: 1.83 µM
NCI-H226
  GI50: 0.787 µM (active)
HCT-116
  GI50: 0.573 µM (active)
UO-31
  GI50: 4.88 µM (inactive)
SK-MEL-28
  GI50: 15.2 µM (inactive)
HOP-92
  GI50: 9.68 µM (inactive)
EKVX
  GI50: 14.4 µM (inactive)
U-251
  GI50: 2.7 µM (inactive)
SF-295
  GI50: 2.1 µM (inactive)

## N#C/C(=C\NC(=S)Nc1ccc(S(=O)(=O)Nc2ccccn2)cc1)C(N)=O
SK-OV-3
  GI50: > 100 µM (inactive)
NCI-H522
  GI50: > 100 µM (inactive)
KM12
  GI50: > 100 µM (inactive)
Malme-3M
  GI50: > 100 µM (inactive)
IGROV-1
  GI50: > 100 µM (inactive)
COLO 205
  GI50: > 100 µM (inactive)
MOLT-4
  GI50: 25.5 µM (inactive)
MCF7
  GI50: > 100 µM (inactive)
TK-10
  GI50: > 100 µM (inactive)
NCI/ADR-RES
  GI50: > 100 µM (inactive)
HCT-15
  GI50: > 100 µM
NCI-H226
  GI50: > 100 µM (inactive)
HCT-116
  GI50: > 100 µM (inactive)
UO-31
  GI50: > 100 µM (inactive)
ACHN
  GI50: > 100 µM (inactive)
SK-MEL-28
  GI50: > 100 µM (inactive)
HOP-92
  GI50: > 100 µM (inactive)
EKVX
  GI50: > 100 µM (inactive)
U-251
  GI50: > 100 µM (inactive)
SF-295
  GI50: > 100 µM (inactive)
